Key:
[1] = test system: N2a tumor-bearing A/J mice; assay: Ex vivo luciferase expression after intravenous injection of mRNA polyplexes; assay type: in vivo
Experimental: Neuro2a cells (10^6 cells/150 μL PBS) were inoculated subcutaneously into the left flank of 6-week-old female A/J mice (Envigo RMS GmbH, Dusseldorf, Germany). Mice were randomly divided into groups of three (in the case of mRNA LNPs) or five (in the case of mRNA polyplexes) and were housed in isolated ventilated cages under specific pathogen free conditions with a 12 h day/night interval, and food and water ad libitum. Weight and general well-being were monitored continuously. Tumor size was measured with a caliper and determined by formula: a*b^2/2 (a=longest side of the tumor; b=widest side vertical to a). When tumors reached a size of 250-500 mm3, the experiments were performed by intravenous tail vein injection of polyplexes or LNPs formed as described in 6.1 and 6.3, containing 1 μg, 3 μg or 10 μg of stabilized firefly luciferase encoding mRNA (CleanCap™ FLuc mRNA (5moU); Trilink Biotechnologies, San Diego, CA, USA) in 150 μL HBG. Polyplexes containing 10 μg mRNA were dialyzed for 1 h at 4° C. against HBG (dialysis membrane MWCO 100-500 Da; Spectra/Por®, Carl Roth, Karlsruhe, Germany) prior to application to remove small amounts of ethanol. […] The luciferase gene expression was determined as described above and is presented as relative light units (RLU) per gram (g) tumor/organ.
To evaluate luciferase mRNA delivery by an ex vivo luciferase gene expression assay, organ and tumor tissues were homogenized in Luciferase Cell Culture Lysis Reagent 1× (Promega, Mannheim, Germany), supplemented with 1% (v/v) protease and phosphatase inhibitor cocktail (Sigma-Aldrich, Munich, Germany) using a tissue and cell homogenizer (FastPrep®-24, MP Biomedicals, USA). […] Luciferase activity in 25 μL supernatant was measured in a Centro LB 960 plate reader luminometer (Berthold Technologies, Bad Wildbad, Germany) for 10 sec after addition of 100 μL/well of a LAR buffer solution (20 mM glycylglycine, 1.0 mM MgCl2, 0.10 mM EDTA, 3.3 mM DTT, 0.55 mM ATP, and 0.27 mM coenzyme A; pH 8-8.5) supplemented with 5% (v/v) of a mixture of 10 mM luciferin and 29 mM glycylglycine.

[2] = test system: HeLa cells; assay: CellTiterGlo assay (relative metabolic activity); assay type: cell-based; conditions: for toxicity (relative metabolic activity, CellTiter Glo): pDNA polyplexes 200 ng/well, 24 h, vs non-reducible analogs
Experimental: HeLa cells were seeded 24 h prior to transfection (5000 cells/well) in 96-well plates. Immediately prior to transfection, the medium was replaced with suitable amounts of fresh medium containing 10% (v/v) FBS to reach a final volume of 100 μL during transfection. The nanoparticles were prepared as described in section 6.1 and transfected with indicated doses. The medium was removed at 24 h after transfection, and 25 μL of fresh, pre-warmed medium as well as 25 μL of CellTiterGlo® Reagent (Promega, Mannheim, Germany) were added to each well [S. Berger et al., Biomacromolecules 2021, 22, 1282; A. Krhač Levačić et al., J Controlled Release 2021, 339, 27]. After incubation on an orbital shaker for 30 min at RT, luminescence was recorded using a Centro LB 960 plate reader luminometer (Berthold Technologies, Bad Wildbad, Germany). The luminescent signals (in RLU) of the samples were normalized to the luminescent signal of the negative control (HBG buffer-treated control cells). Results were presented as relative metabolic activity related to the negative control. Experiments were performed as triplicates.

[3] = Particle size, polydispersity and zeta potential measurement (DLS, ELS); assay type: physicochemical; design: Zeta / Size: unit not given here
Experimental: 6.6 Particle Size and Zeta Potential Measurement for pDNA, mRNA, siRNA, Cas9 mRNA/sgRNA and Cas9 mRNA/sgRNA/ssDNA Polyplexes as Well as mRNA LNPs
Measurements of size and zeta potential were performed with a Zetasizer Nano ZS (Malvern Instruments, Malvern, Worcestershire, U.K.) in a folded capillary cell (DTS1070) by dynamic and electrophoretic laser-light scattering (DLS, ELS). […] Samples were measured three times with six sub runs per measurement. For measurement of the zeta potential, all samples were diluted to 800 μL with HBG or HEPES (for siRNA polyplexes) directly before measurement. Parameters were identical to the size measurement apart from an equilibration time of 60 sec. Three measurements with 15 sub runs lasting 10 sec each were performed, and zeta potentials were calculated by the Smuchowski equation.

[4] = test system: N2a cells; assay: Co-delivery efficiency of mRNA/pDNA polyplexes by flow cytometry; assay type: cell-based, murine; conditions: N/P 18, 25 and 50 ng combined nucleic acid/well
Experimental: CleanCap® mCherry mRNA (5moU) (Trilink Biotechnologies, San Diego, CA, USA) and pEGFP-N1 pDNA (Clontech Laboratories, Inc. (now Takara Bio USA, Inc., San Jose, CA, USA)) at a fixed weight ratio of 1:1 were mixed and diluted in HBG. Calculated amounts of aminolipid at indicated N/P (nitrogen/phosphate) ratios (see above) were diluted in separate tubes of HBG. Equal volumes of nucleic acid solution and aminolipid solution were mixed by rapid pipetting and incubated 40 min at RT in a closed Eppendorf reaction tube. The final concentration of nucleic acid in the polyplex solution was 5 μg/mL (2.5 μg/mL mCherry mRNA plus 2.5 μg/mL pEGFP-N1 pDNA).
mRNA/pDNA polyplex treatments were performed in triplicate in 96-well plates. N2a cells were seeded 24 h prior to transfection (10,000 cells/well). On the next day, the medium was replaced with 80 μL of fresh pre-warmed medium containing 10% (v/v) FBS. The nanoparticles were prepared as described above, and the volumes of 10 and 5 μL of polyplex solution (2.5 μg/mL mCherry mRNA and 2.5 μg/mL pEGFP-N1 pDNA) were added. 20 μL HBG buffer per well was used as negative control. After 24 h of treatment, cells were collected and re-suspended in PBS solution containing 10% (v/v) FBS (FACS buffer) for flow cytometric evaluation. All samples were analyzed by flow cytometry using a CytoFLEX S Flow Cytometer (Beckman Coulter, Brea, CA, USA). Shortly before the measurement, 1 ng/μL 4′, 6-diamidino-2-phenylindole (DAPI) was added and used to discriminate between viable and dead cells. The cellular fluorescence was assayed by excitation of DAPI at 405 nm and detection of emission at 450 nm. Only isolated viable cells were evaluated. Gates were set compared to control measurements with HBG buffer-treated cells. […] Flow cytometry data were analyzed using FlowJo™ v10.8 flow cytometric analysis software by FlowJo, LLC (Becton, Dickinson and Company, U.S.). The cellular fluorescence expression was assayed by excitation at 561 nm and 488 nm, the detection of emission at 610 nm and 530 nm for mCherry and eGFP, respectively.

[5] = test system: N2a cells; assay: Luciferase expression assay of pDNA polyplexes in N2a cells; assay type: cell-based, murine; conditions: for dose dependence of pDNA transfection efficiency: dose titration 200, 100, 50, 26, 14 ng pCMVLuc/well; for transfection efficiency (luciferase expression) of pDNA polyplexes: 24 h, standard pDNA dose 200 ng/well, compared with LPEI N/P 6
[6] = test system: N2a cells; assay: Luciferase expression assay of mRNA polyplexes in N2a cells; assay type: cell-based, murine
[7] = test system: Huh7 cells; assay: Luciferase expression assay of pDNA polyplexes in Huh7 cells; assay type: cell-based, human
[8] = Cas9 mRNA/sgDMDex23 polyplexes, N/P 24, combined nucleic acid 12.5 μg/mL
[9] = mRNA LNPs, 12.5 μg/mL CleanCap FLuc mRNA (5moU), N/P 9, molar ratios see Table A
[10] = pDNA polyplexes, N/P 12, 10 μg/mL pCMVLuc
[11] = mRNA polyplexes, 12.5 μg/mL CleanCap FLuc mRNA (5moU), N/P 12 (1611, 1719, 1722, 1732), N/P 24 (1614), N/P 18 (1621, 1747)
[12] = PEGylated pDNA polyplexes 25% PEG, 10 μg/mL pCMVLuc
[13] = Targeted pDNA polyplexes 12.5% PEG 2k, 12.5% PEG-GE11, 10 μg/mL pCMVLuc
[14] = Unmodified pDNA polyplexes 0%, 10 μg/mL pCMVLuc
[15] = pDNA polyplexes, N/P 18, 10 μg/mL pCMVLuc
[16] = Cas9 mRNA/sgGFP1 polyplexes, N/P 18, combined nucleic acid 5.0 μg/mL

Compound: CCCCCCCCCCCCN(CCCCCCCCCCCC)CCCCCCCC(=O)NCCCC[C@H](NC(=O)CCC(=O)NCCNCCNCCNCCNC(=O)[C@@H](N)CCCCNC(=O)CCCCCCCN(CCCCCCCCCCCC)CCCCCCCCCCCC)C(=O)O [compound 1611, K(12Oc)-Stp-K(12Oc)]
- in vivo toxicity / tolerability of mRNA polyplexes [1]: good tolerability

Compound: CCCCCCCCN(CCCCCCCC)CCCCCCCC(=O)NCCCC[C@H](NC(=O)CCCCCCCN(CCCCCCCC)CCCCCCCC)C(=O)NCCSSCCNC(=O)CCC(=O)NCCCC[C@H](NC(=O)CCC(=O)NCCSSCCNC(=O)[C@H](CCCCNC(=O)CCCCCCCN(CCCCCCCC)CCCCCCCC)NC(=O)CCCCCCCN(CCCCCCCC)CCCCCCCC)C(=O)NCCNCCNCCNCCNC(=O)CCC(=O)O [compound 1792, [(8Oc)2)-K-ssbb]2-K-Stp]
- cell viability (relative metabolic activity, CellTiter Glo) ([2]; mRNA polyplexes, 25% of the standard mRNA dose of 250 ng/well, vs 1621): significantly improved cell viability

Compound: CCCCCCCCCCCCN(CCCCCCCCCCCC)CCCCCCCC(=O)NCCSSCCNC(=O)CCC(=O)NCCCC[C@H](NC(=O)CCC(=O)NCCNCCNCCNCCNC(=O)[C@@H](N)CCCCNC(=O)CCC(=O)NCCSSCCNC(=O)CCCCCCCN(CCCCCCCCCCCC)CCCCCCCCCCCC)C(=O)O [compound 1821, K(ssbb-12Oc)-Stp-K(ssbb-12Oc)]
- toxicity (relative metabolic activity, CellTiter Glo) [2]: significantly less toxic

Compound: CCCCCCCCN(CCCCCCCC)CCCCCCCC(=O)NCCCC[C@H](NC(=O)CCCCCCCN(CCCCCCCC)CCCCCCCC)C(=O)NCCSSCCNC(=O)CCC(=O)NCCCC[C@H](NC(=O)CCC(=O)NCCSSCCNC(=O)[C@H](CCCCNC(=O)CCCCCCCN(CCCCCCCC)CCCCCCCC)NC(=O)CCCCCCCN(CCCCCCCC)CCCCCCCC)C(=O)NCCNCCNCCNCCNC(=O)CCC(=O)NCCNCCNCCNCCNC(=O)CCC(=O)O [compound 1824, [(8Oc)2)-K-ssbb]2-K-Stp2]
- toxicity (relative metabolic activity, CellTiter Glo) [2]: significantly less toxic

Compound: K(8Oc)2-Stp2-K(8Oc)-K(8Oc) [compound 1731]
- Z-average [3, 8]: 67.5 nm
- Zeta potential [3, 8]: 37.5 mV

Compound: K(8Oc)2-Stp-K(8Oc)-K(8Oc) [compound 1620]
- Pdl [3, 8]: 0.130
- Z-average [3, 8]: 134.3 nm
- Zeta potential [3, 8]: 22.7 mV
- Pdl [3, 9]: 0.152
- Z-average [3, 9]: 271.1 nm
- Zeta potential [3, 9]: −1.41 mV

Compound: K(12Bu)-Stp-K(12Bu) [compound 1763]
- mCherry mRNA/eGFP pDNA co-expression (co-delivery efficiency) [4]: most potent structures

Compound: K(12He)-Stp-K(12He) [compound 1765]
- mCherry mRNA/eGFP pDNA co-expression (co-delivery efficiency) [4]: most potent structures

Compound: K(12Oc)2-Stp2 [compound 1710]
- Pdl [3, 10]: 0.246 ± 0.024
- Z-average [3, 10]: 111.8 ± 11.4 nm
- Zeta potential [3, 10]: 15.6 ± 2.1 mV
- dose dependence of pDNA transfection efficiency [5]: good performance only at the highest dose

Compound: K(12Oc)2-Stp2-K(12Oc)-K(12Oc) [compound 1722]
- Pdl [3, 11]: 0.339
- Z-average [3, 11]: 92.5 nm
- Zeta potential [3, 11]: 44.4 mV
- transfection efficiency (luciferase expression) of pDNA polyplexes [5]: most potent pDNA carriers
- transfection efficiency (luciferase expression) of mRNA polyplexes ([6]; 24 h, dose titration 63, 31, 16 ng mRNA/well, vs succPEI and 1218): dose-independent transfection efficiency

Compound: K(12Oc)2-Stp2-K[K(12Oc)2] [compound 1717]
- transfection efficiency (luciferase expression) of pDNA polyplexes [5]: most potent pDNA carriers

Compound: K(12Oc)2-Stp [compound 1614]
- Pdl [3, 11]: 0.223
- Z-average [3, 11]: 111.6 nm
- Zeta potential [3, 11]: 15.7 mV

Compound: K(12Oc)2-Stp-K(12Oc)-K(12Oc) [compound 1612]
- Pdl [3, 9]: 0.273
- Z-average [3, 9]: 275.8 nm
- Zeta potential [3, 9]: 1.88 mV

Compound: K(12Oc)-(^εK-^εK-6-Ahx)-K(12Oc) [compound 1747]
- Pdl [3, 11]: 0.146
- Z-average [3, 11]: 91.1 nm
- Zeta potential [3, 11]: 17.5 mV

Compound: K(DodOc)2-Stp2-K(DodOc)-K(DodOc) [compound 1725]
- transfection efficiency of pDNA polyplexes, DodOc (amide) control vs LAF analog ([5]; N/P 12, 200 ng pCMVLuc/well): ineffective
- transfection efficiency of mRNA polyplexes, DodOc (amide) control vs LAF analog ([6]; N/P 12, 62.5 ng mRNA/well): ineffective

Compound: K[K2-K(12Oc)2]2 [compound 1851]
- RLU values relative to Stp2 analog 1717 ([6]; 15 ng mRNA/well): around 10 fold
- transfection efficiency of mRNA polyplexes vs Stp2 analog 1717 ([6]; all tested N/P ratios, 50 and 15 ng mRNA/well): outperformed its Stp2 analog

Compound: K[K(12Oc)2]-Stp-K[K(12Oc)2] [compound 1720]
- Pdl [3, 9]: 0.196
- Z-average [3, 9]: 209.8 nm
- Zeta potential [3, 9]: 0.70 mV

Compound: K[K[8Oc)2]2-Stp2 [compound 1730]
- Pdl [3, 12]: 0.22
- Size [3, 12]: 100
- Zeta [3, 12]: 2.0
- Pdl [3, 13]: 0.17
- Size [3, 13]: 125
- Zeta [3, 13]: 2.0
- Pdl [3, 14]: 0.21
- Size [3, 14]: 109
- Zeta [3, 14]: 15.9
- PDI [3, 15]: 0.10 ± 0.01
- Z-average [3, 15]: 95.3 ± 1.6 nm
- Zeta potential [3, 15]: 21.7 ± 0.6 mV
- RLU values of targeted polyplexes in comparison to shielded polyplexes ([7]; N/P 12, pDNA dose 50 ng/well): 32.8 fold
- RLU values of targeted polyplexes in comparison to shielded polyplexes ([7]; N/P 12, pDNA dose 100 ng/well): 25.5 fold

Compound: K[K[12Oc)2]2-Stp [compound 1613]
- Pdl [3, 9]: 0.159
- Z-average [3, 9]: 176.8 nm
- Zeta potential [3, 9]: −3.03 mV

Compound: Stp-K[K(12Oc)2]-Stp [compound 1715]
- Pdl [3, 10]: 0.100 ± 0.010
- Z-average [3, 10]: 89.8 ± 1.4 nm
- Zeta potential [3, 10]: 24.47 ± 1.4 mV
- dose dependence of pDNA transfection efficiency [5]: good performance only at the highest dose

Compound: [K(8Oc)]2-Stp2-[K(8Oc)]2 [compound 1745]
- Pdl [3, 16]: 0.266 ± 0.046
- Z-average [3, 16]: 99.4 ± 7.9 nm
- Zeta potential [3, 16]: 11.9 ± 1.6 mV

Compound: [K(12He)]2-Stp2-[K(12He)]2 [compound 1760]
- in vivo luciferase expression of mRNA polyplexes ([1]; tumors, lungs, liver, spleen): great in vivo performance

Compound: [K(12Oc)]2-Stp-[K(12Oc)]2 [compound 1718]
- Pdl [3, 8]: 0.223
- Z-average [3, 8]: 107.5 nm
- Zeta potential [3, 8]: 36.0 mV
- Pdl [3, 9]: 0.140
- Z-average [3, 9]: 198.1 nm
- Zeta potential [3, 9]: 0.03 mV

Source: patent US20260159854A1, “NOVEL CARRIERS FOR NUCLEIC ACID AND/OR PROTEIN DELIVERY” (LUDWIG-MAXIMILIANS-UNIVERSITÄT MÜNCHEN, priority 2022, published 2026)
